# According to patent publication US6958323B2 (priority 1997, dated 2005):
# Like-named read-outs stand apart in the source and are kept apart here.
# Tests used:
# [1] = tested on: rat striatal synaptosomes; format: cell-based
# [2] = tested on: rat striatal synaptosomes; details: cited from earlier work
# [3] = tested on: rat hippocampal synaptosomes; details: read-out: EC50 for release of hippocampal norepinephrine; cited from earlier work
Compound,Block of nicotine-stimulated [3H]-dopamine release [1],EC50 ([2]; read-out: EC50 for increase of [3H]-dopamine release),EC50 ([2]; read-out: EC50 for release of striatal dopamine),EC50 [3]
CNC1(C)C2CCC(C2)C1(C)C (stereo not shown) [mecamylamine],fully blocked,–,–,–
CN1CCCC1c1cccnc1 (stereo not shown) [nicotine],–,160 nM,160 nM,6500 nM
